Results from patent publication US20260356851A1, “TRICYCLIC COMPOUNDS AND USES THEREOF” (HUTCHMED LIMITED, priority 2023, published 2026).

Legend:
Assay type in all cases: cell-based
[1] = molecular target: T1, pERK1/2 (Thr202/Tyr204), NCI-1H441 (KRAS G12V) (Homo sapiens, UniProt P01116, G12V); experiment: Assay of intracellular pERK1/2 (Thr202/Tyr204) phosphorylation in NCI-H441 cells (KRAS G12V); conditions: pERK1/2, 2 days, read-out: NCI-H441 (KRAS G12V) IC50
T1 construct: pERK1/2 HTRF read-out
T1 sequence (P01116 1-188 isoform P01116-2 G12V): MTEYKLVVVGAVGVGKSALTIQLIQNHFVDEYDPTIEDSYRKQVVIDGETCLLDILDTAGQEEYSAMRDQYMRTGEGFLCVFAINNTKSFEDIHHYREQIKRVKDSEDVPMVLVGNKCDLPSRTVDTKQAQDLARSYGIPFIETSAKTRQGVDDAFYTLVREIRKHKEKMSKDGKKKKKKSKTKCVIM
In short: (§1)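 Cells (10000-12000/well) exposed to 3-fold compound dilutions for 2 days at 37 °C, then lysed; pERK1/2 (Thr202/Tyr204) measured by HTRF with d2 and cryptate antibodies, 665/615 nm ratio.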

[2] = molecular target: T2, pERK1/2 (Thr202/Tyr204), PANC-1 (KRAS G121D) (Homo sapiens, UniProt P01116, G12D); experiment: Assay of intracellular pERK1/2 (Thr202/Tyr204) phosphorylation in PANC-1 cells (KRAS G12D); conditions: pERK1/2, 2 days, read-out: PANC-1 (KRAS G12D) IC50
T2 construct: pERK1/2 HTRF read-out
T2 sequence (P01116 1-188 isoform P01116-2 G12D): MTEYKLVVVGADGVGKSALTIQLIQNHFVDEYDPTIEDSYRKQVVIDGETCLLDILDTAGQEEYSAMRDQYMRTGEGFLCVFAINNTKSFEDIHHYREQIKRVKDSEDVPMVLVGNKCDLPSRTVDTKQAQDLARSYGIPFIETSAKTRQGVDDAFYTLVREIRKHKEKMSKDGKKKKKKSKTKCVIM
In short: as §1

[3] = molecular target: T3, pERK1/2 (Thr202/Tyr204), NCI-1H358 (KRAS G12C) (Homo sapiens, UniProt P01116, G12C); experiment: Assay of intracellular pERK1/2 (Thr202/Tyr204) phosphorylation in NCI-H358 cells (KRAS G12C); conditions: pERK1/2, 2 days, read-out: NCI-H358 (KRAS G12C) IC50
T3 construct: pERK1/2 HTRF read-out
T3 sequence (P01116 1-188 isoform P01116-2 G12C): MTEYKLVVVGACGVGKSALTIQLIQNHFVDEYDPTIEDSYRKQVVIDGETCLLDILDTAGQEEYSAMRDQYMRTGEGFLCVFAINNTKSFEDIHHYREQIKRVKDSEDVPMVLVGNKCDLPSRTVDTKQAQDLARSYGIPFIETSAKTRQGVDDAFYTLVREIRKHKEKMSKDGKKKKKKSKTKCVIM
In short: as §1

Row | Compound | IC50 [1] [nM] | IC50 [2] [nM] | IC50 [3] [nM]
1 | Cc1c(F)c(N)cc(-c2nc3c4c(nc(OC[C@@]56CCCN5C[C@H](F)C6)nc4c2F)N([C@@H](C)c2cc(F)cnc2N)[C@@H](C)CO3)c1C(F)(F)F [Compound 366] | > 100 | > 100 | > 100
2 | CC(c1cc(F)cnc1N)N1c2nc(OC[C@@]34CCCN3C[C@H](F)C4)nc3c(F)c(-c4c5cn[nH]c5cc5cccc(F)c45)nc(c23)OC[C@@H]1C (stereo partly drawn) [Compound 367] | 0.4 | 1 | 0.2
3 | Cc1c(C(F)(F)F)c(-c2nc3c4c(nc(OC[C@@]56CCCN5C[C@H](F)C6)nc4c2F)N(C(C)c2cc(F)cnc2N)[C@@H](C)CO3)c2cn[nH]c2c1F (stereo partly drawn) [Compound 368] | 0.3 | 0.6 | 0.3
4 | CC(c1cccnc1N)N1c2nc(OC[C@@]34CCCN3C[C@H](F)C4)nc3c(F)c(-c4c5cn[nH]c5cc5ccc(F)c(F)c45)nc(c23)OC[C@@H]1C (stereo partly drawn) [Compound 369] | 0.2 | 0.4 | 0.2
5 | CC(c1cccnc1N)N1c2nc(OC[C@@]34CCCN3C[C@H](F)C4)nc3c(F)c(-c4c5c(cc6[nH]ncc46)CCC5(F)F)nc(c23)OC[C@@H]1C (stereo partly drawn) [Compound 370] | 3 | 2 | 1
6 | CC(c1cccnc1N)N1c2nc(OC[C@@]34CCCN3C[C@H](F)C4)nc3c(F)c(-c4cc(F)cc5c4C(F)(F)CC5)nc(c23)OC[C@@H]1C (stereo partly drawn) [Compound 371] | 11 | 57 | 3
7 | Cc1cc2[nH]ncc2c(-c2nc3c4c(nc(OC[C@@]56CCCN5C[C@H](F)C6)nc4c2F)N(C(C)c2cccnc2N)CCO3)c1C(F)(F)F (stereo partly drawn) [Compound 372] | 0.8 | 4 | 0.3
8 | CC(c1cccnc1N)N1c2nc(OC[C@@]34CCCN3C[C@H](F)C4)nc3c(F)c(-c4c5c(cc6[nH]ncc46)CC=C5F)nc(c23)OC[C@@H]1C (stereo partly drawn) [Compound 374] | 2 | 1 | 0.6
9 | CC(c1cccnc1N)N1c2nc(OC[C@@]34CCCN3C[C@H](F)C4)nc3c(F)c(-c4c5cccnc5cc5[nH]ncc45)nc(c23)OC[C@@H]1C (stereo partly drawn) [Compound 375] | 94 | > 100 | 8
10 | CC(c1cccnc1N)N1c2nc(OC[C@@]34CCCN3C[C@H](F)C4)nc3c(F)c(-c4c5c(cc6[nH]ncc46)CCC(F)(F)C5)nc(c23)OC[C@@H]1C (stereo partly drawn) [Compound 376] | 1 | 4 | 0.4
11 | Cc1cc2[nH]nc(C)c2c(-c2nc3c4c(nc(OC[C@@]56CCCN5C[C@H](F)C6)nc4c2F)N(C(C)c2cccnc2N)[C@@H](C)CO3)c1C(F)(F)F (stereo partly drawn) [Compound 377] | 5 | 2 | 2
12 | Cc1cc2[nH]nc(C)c2c(-c2nc3c4c(nc(OC[C@@]56CCCN5C[C@H](F)C6)nc4c2F)N(C(C)c2cccnc2N)[C@@H](C)CO3)c1C(F)(F)F (stereo partly drawn) [Compound 378] | 0.6 | 0.2 | 0.2
13 | Cc1c(C(F)(F)F)c(-c2nc3c4c(nc(OC[C@@]56CCCN5C[C@H](F)C6)nc4c2F)N(C(C)c2cccnc2N)[C@@H](C)CO3)c2c(C)n[nH]c2c1F (stereo partly drawn) [Compound 379] | 0.3 | 0.1 | 0.2
14 | Cc1c(C(F)(F)F)c(-c2nc3c4c(nc(OC[C@@]56CCCN5C[C@H](F)C6)nc4c2F)N(C(C)c2cccnc2N)[C@@H](C)CO3)c2c(C)n[nH]c2c1F (stereo partly drawn) [Compound 380] | 2 | 1 | 1
15 | Cc1c(C(F)(F)F)c(-c2nc3c4c(nc(OC[C@@]56CCCN5C[C@H](F)C6)nc4c2F)N(C(C)c2cccnc2N)[C@@H](C)CO3)c2c(Cl)n[nH]c2c1F (stereo partly drawn) [Compound 381] | 0.4 | 0.2 | 0.2
16 | Cc1c(C(F)(F)F)c(-c2cc3nc(OC[C@@]45CCCN4C[C@H](F)C5)nc4c3c(n2)OC[C@H](C)N4C(C)c2cccnc2N)c2c(C)n[nH]c2c1F (stereo partly drawn) [Compound 383] | 0.4 | 0.4 | 0.5
17 | Cc1cc2[nH]nc(C)c2c(-c2cc3nc(OC[C@@]45CCCN4C[C@H](F)C5)nc4c3c(n2)OC[C@H](C)N4C(C)c2cccnc2N)c1C(F)(F)F (stereo partly drawn) [Compound 385] | 2 | 0.4 | 0.7
18 | CC(c1cccnc1N)N1c2nc(OC[C@@]34CCCN3C[C@H](F)C4)nc3cc(-c4c5ccccc5cc5[nH]ncc45)nc(c23)OC[C@@H]1C (stereo partly drawn) [Compound 386] | 0.7 | 6 | 0.4
